According to ChEMBL document CHEMBL1154657, “Heterobiaryl purine derivatives as potent antiproliferative agents: inhibitors of cyclin dependent kinases. Part II” (Bioorg Med Chem Lett, 2009):

What was measured:
[1] = biological target: Cyclin-dependent kinase 2/cyclin A (Homo sapiens, UniProt P24941); test: Inhibition of recombinant Cdk2/cyclinA; format: protein-complex assay
[2] = biological target: Cyclin-dependent kinase 2/cyclin E (Homo sapiens, UniProt P24941); test: Inhibition of Cdk2/cyclinE; format: protein-complex assay
[3] = Growth inhibition of human HeLaS3 cells; format: functional; details: HeLa S3

Row | SMILES | IC50 [1] [nM] | IC50 [2] [nM] | GI50 [3] [nM]
1 | CC(C)n1cnc2c(NCc3coc(-c4ccccc4)c3)nc(N[C@H]3CC[C@H](N)CC3)nc21 | 300 | 150 | 330
2 | CC(C)n1cnc2c(NCc3ccc(-c4cccnc4)cc3)nc(N[C@H]3CC[C@H](N)CC3)nc21 | 300 | 70 | 140
3 | CC(C)n1cnc2c(NCc3ccc(-c4ccccn4)cc3)nc(N[C@H]3CC[C@H](N)CC3)nc21 | 200 | 100 | 44
4 | CC(C)n1cnc2c(NCc3ccc(-c4ccsc4)s3)nc(N[C@H]3CC[C@H](N)CC3)nc21 | 300 | 200 | 150
5 | CC(C)n1cnc2c(NCc3ccc(-c4cccs4)cc3)nc(N[C@H]3CC[C@H](N)CC3)nc21 | 100 | 90 | 48
6 | CC[C@H](CO)Nc1nc(NCc2ccccc2)c2ncn(C(C)C)c2n1 [SELICICLIB] | – | – | 20000
7 | CC(C)n1cnc2c(NCc3ccc(-c4ccsc4)cc3)nc(N[C@H]3CC[C@H](N)CC3)nc21 | 400 | 200 | 40
8 | CC(C)n1cnc2c(NCc3ccc(-n4cccc4)cc3)nc(N[C@H]3CC[C@H](N)CC3)nc21 | 200 | 200 | 20
9 | CC(C)n1cnc2c(NCc3ccc(-c4ccoc4)s3)nc(N[C@H]3CC[C@H](N)CC3)nc21 | 600 | 200 | 2000
10 | Cc1ccc(-c2ccc(CNc3nc(N[C@H]4CC[C@H](N)CC4)nc4c3ncn4C(C)C)cc2)s1 | 600 | 200 | 400
11 | CC(C)n1cnc2c(NCc3ccc(-c4cccc(F)c4)nc3)nc(N[C@H]3CC[C@H](N)CC3)nc21 | 80 | 40 | 16
12 | CC(C)n1cnc2c(NCc3ccc(-n4cccn4)cc3)nc(N[C@H]3CC[C@H](N)CC3)nc21 | 140 | 950 | 170
13 | CC(C)n1cnc2c(NCc3ccc(-c4cccs4)nc3)nc(N[C@H]3CC[C@H](N)CC3)nc21 | 900 | – | 98
14 | CC(C)n1cnc2c(NCc3ccc(-c4ccccc4)cc3)nc(N[C@H]3CC[C@H](N)CC3)nc21 | 400 | 100 | –
15 | CC(C)n1cnc2c(NCc3cnc(-c4ccccc4)s3)nc(N[C@H]3CC[C@H](N)CC3)nc21 | < 50 | < 50 | 200
16 | Cc1csc(-c2ccc(CNc3nc(N[C@H]4CC[C@H](N)CC4)nc4c3ncn4C(C)C)s2)n1 | 100 | – | 40
17 | CC(C)n1cnc2c(NCc3ccc(-c4ccsc4)nc3)nc(N[C@H]3CC[C@H](N)CC3)nc21 | 100 | < 30 | 27
18 | CC(C)n1cnc2c(NCc3ccc(-c4cccnc4)s3)nc(N[C@H]3CC[C@H](N)CC3)nc21 | 200 | 100 | 200
19 | CC(C)n1cnc2c(NCc3ccc(-c4ccccc4)nc3)nc(N[C@H]3CC[C@H](N)CC3)nc21 | 100 | 40 | 71

More lines, in order of falling IC50 [1], values ahead:

Row | IC50 [1] [nM] | IC50 [2] [nM] | SMILES | GI50 [3] [nM]
20 | 1500 | 44 | CC(C)n1cnc2c(NCc3ccc(-c4ccccn4)s3)nc(N[C@H]3CC[C@H](N)CC3)nc21 | 270
21 | 700 | 400 | CC(C)n1cnc2c(NCc3csc(-c4ccccc4)n3)nc(N[C@H]3CC[C@H](N)CC3)nc21 | 4000
22 | 700 | 200 | Cc1cccc(-c2ccc(CNc3nc(N[C@H]4CC[C@H](N)CC4)nc4c3ncn4C(C)C)s2)c1 | 200
23 | 500 | 200 | Cc1csc(-c2ccc(CNc3nc(N[C@H]4CC[C@H](N)CC4)nc4c3ncn4C(C)C)cc2)c1 | 400
24 | 500 | 400 | CC(C)n1cnc2c(NCc3ccc(-c4ccccc4)cn3)nc(N[C@H]3CC[C@H](N)CC3)nc21 | 500
25 | 500 | 300 | CC(C)n1cnc2c(NCc3ccc(-c4ccc(F)cc4)s3)nc(N[C@H]3CC[C@H](N)CC3)nc21 | 390
26 | 400 | 80 | CC(C)n1cnc2c(NCc3ccc(-c4ccccc4F)s3)nc(N[C@H]3CC[C@H](N)CC3)nc21 | 300
27 | 400 | 300 | CC(C)n1cnc2c(NCc3ccc(-c4ccc(Cl)s4)cc3)nc(N[C@H]3CC[C@H](N)CC3)nc21 | 380
28 | 300 | 100 | COc1cccc(-c2ccc(CNc3nc(N[C@H]4CC[C@H](N)CC4)nc4c3ncn4C(C)C)s2)c1 | 160
29 | 250 | 90 | CC(C)n1cnc2c(NCc3ccc(-c4cccc(F)c4)s3)nc(N[C@H]3CC[C@H](N)CC3)nc21 | 190
30 | 250 | 85 | CC(C)n1cnc2c(NCc3csc(-c4ccccc4)c3)nc(N[C@H]3CC[C@H](N)CC3)nc21 | 370
31 | 200 | 100 | CC(C)n1cnc2c(NCc3ccc(-c4ccco4)s3)nc(N[C@H]3CC[C@H](N)CC3)nc21 | 300
32 | 150 | 90 | CC(C)n1cnc2c(NCc3ccc(-c4ccco4)cc3)nc(N[C@H]3CC[C@H](N)CC3)nc21 | 30
33 | 140 | 55 | CC(C)n1cnc2c(NCc3ccc(-c4cccs4)s3)nc(N[C@H]3CC[C@H](N)CC3)nc21 | 300
34 | 90 | 30 | CC(C)n1cnc2c(NCc3ccc(-c4ccccn4)nc3)nc(N[C@H]3CC[C@H](N)CC3)nc21 | 310
35 | 70 | 50 | CC(C)n1cnc2c(NCc3ccc(-n4cccn4)nc3)nc(N[C@H]3CC[C@H](N)CC3)nc21 | 20
